Key:
HSV-1 infected rats = assay: Survival of rats infected with HSV-1; assay type: in vivo, rat; conditions: 10 pg or 25 pg AF-16 intranasally twice daily
Procedure: FIG. 3: Survival frequency of rats infected with HSV-1 by the administration of a virus solution in the right nostril on day 0. Half of the rats (n=15) were treated twice daily with 1 μg AF-16 (upper line), a peptide composed of the amino acids VCHSKTRSNPENNVGL (SEQ ID NO: 1), twice daily intranasally, while the other half received just the vehicle after the HSV-1 infection (lower line). Of those treated with just the vehicle only 10% survived day 14, contrasting to the 60% of those treated with AF-16.
Therefore, rats were infected by instillation in their right nostril of 25 μL of a solution of the herpes simplex virus type 1 (HSV-1; strain 2762, batch 041028; 1.7×10^7 PFU/mL). Half of the animals received 10 min later 25 μL (1, 10 or 25 pg) of AF-16 in their right nostril, and had thereafter the same dose of AF-16 instilled every morning at 8 AM and every night at 6 PM until the experiment was terminated on day 14. The other half of the group of HSV-1 infected rats received 25 μL of the vehicle, PBS, at the same time schedule. The animals were several times daily closely watched for signs of behavioral dysfunction or general sickness. If so, the animals were sacrificed. The FIG. 3 is illustrating the survival rates for the animals, all being infected with HSV-1. […]

[1] = test system: ICP after subarachnoidally deposited blood; assay: Cerebral CS induced by autologous blood in the subarachnoid space, ICP; assay type: in vivo, Sprague-Dawley rats
From the text: A different type of cerebral CS was induced by the injection of […] whole blood in the subarachnoid space, a procedure known from the literature to result in the development of brain oedema and elevated ICP. Anaesthetized adult rats had 50-350 pL heparinzed autologous blood deposited in the subarachnoid space through a small hole drilled in the occipital bone or by injection into the cistern magna through the atlanto-occipital membrane. Holes drilled in a skull bone were eventually plugged with SuperBond@ glue. Such treatments with subarachnoidally deposited blood increased the ICP, inducing the development of a CS in a day or within a week, the exact time depending on the conditions and amount of blood deposited, in agreement with reports in the medical literature. In our experiments, injection of 0.2-0.3 mL autologous, heparinized blood in the cisterna magna in adult Sprague-Dawley rats resulted within 1-3 days in an elevation of the ICP to 13 to 30 mm Hg, as assessed with an implanted miniature pressure light guided probe (Samba System 3200 & Samba Preclin 420 sensor; Samba Sensors AB, Gruvgatan 6, SE 42130 V. Frolunda, Sweden). The ICP in normal adult rats, either non-treated or having had phosphate buffered saline (PBS) injected instead, was 6-9 mm Hg. […] This means that AF-16 is abolishing and, in case of already established cerebral CS, reducing its severity. The prompt response to AF-16 was decisive for the beneficial effect exerted by AF-16.

pericardium = assay: Traumatized pericardium, fluid accumulation; assay type: in vivo, rat; conditions: treated for a week after rubbing of pericardium
From the text: Adult rats had experimentally a CC condition induced affecting the pericardium and assessed with regard to effects of treatment with the peptide AF-16. The pericardial cavity is delimiting the heart, forming a sac filled with a minimal volume of fluid, enabling accommodation of the sliding movements resulting from the sudden and forceful contractions of the heart. The pericardial cavity is towards its periphery enclosed by a parietal membrane rich in collagen. On anaesthetized rats the pericardium was opened surgically, through a small “window” in the diaphragm and mediastinum. The inside of the pericardium was traumatized by rubbing it surgically through the incision. These animals were divided in two groups, one treated with AF-16 while the other had just the vehicle, PBS. […] In contrast, those animals that after the rubbing had been treated with the vehicle had their pericardium filled with fluid under pressure, and had further numerous fibrin strands and inflammatory cells. Additionally, the parietal pericardial envelop was swollen, inflamed and infiltrated by numerous enlarged, in parts newly formed blood vessels.

intervertebral discs = assay: Injured or loaded intervertebral discs; assay type: in vivo, rodents, rabbits and pigs
From the text: The intervertebral discs, which separate the vertebral bodies in the spine, adjust their dimensions according to the actual load many times a day. The water content in the avascular nucleus pulposus and the annulus fibrosus in a disc is dependant on the supply of fluid, ions, nutrients and oxygen from adjacent ligaments and from the end plates of the vertebrae (Cf. Holm et al., 2007). Vast products from an avascular disc must pass through the same obstacles prior to reaching vascular systems. Therefore, rodents, rabbits and pigs have been assessed regarding effects of AF protein and of AF peptides with regard to effects on the intervertebral discs when loaded and unloaded. […] It is thus disclosed that the AF compounds are beneficial in reducing the swelling and tissue damage at trauma or deformation and/or excessive load on intervertebral discs.

implanted tumours = assay: Interstitial fluid pressure (IFP) in implanted tumours; assay type: in vivo, rodents
Procedure: Tumours, malignant as well as benign, have been implanted subcutaneously and intramuscularly in rodents. Every second animal, having tumours with a diameter ranging from 10 mm to 15 mm, was treated with AF proteins or AF-16, systemically with the aid of subcutaneously implanted Alzet osmotic minipumps, by injections of AF-16 at or into the tumour. In another experiment, the AF-16 peptide was delivered from an implanted Alzet 2001 pump directly onto and/or into the tumour with a fine silicone tube. Additional rats had the AF-protein induced by their feed ort by having AF in egg yolk. For comparison, an equal number of rats received the same treatment but with the vehicle. The interstitial fluid pressure (IFP) in the tumour as well as at its adjacent regions was determined with the aid of a Samba glass fibre pressure sensor (diameter 0.4 mm), with and without a protecting tubing, as well as with equipment enabling determination of the interstitial fluid pressure by the “wick” technique. […] The IFP in the adjacent connective tissue was ranging from 0 to 4 mm Hg, but could occasionally be negative. Tumours in the range of 10-15 mm, and treated with AF-16 as described above, got a reduction of the IFP, which turned reduced to usually 12 mm Hg or less.

Sequence: VCHSKTRSNPENNVGL [AF-16]
- signs of neurological dysfunction (HSV-1 infected rats): none showed any signs of neurological dysfunction
- survival at day 14 (HSV-1 infected rats): all the infected animals survived
- ICP after treatment ([1]; 25 pg AF-16 intranasally twice daily): almost normal levels
- brain, behavioral and motor function ([1]; 25 pg AF-16 intranasally twice daily, vs vehicle): neither signs of impaired brain function nor any gross obvious impairment of behavioral or motor functions
- time for elevated ICP to turn to almost normal levels ([1]; 25 pg AF-16 intranasally twice daily, elevated ICP 13 to 30 mm Hg, normal 6-9 mm Hg): 1 to 2 h
- extent and severity of brain damage ([1]; vs vehicle PBS): reduced the extent and severity of the brain damage
- fluid in pericardial cavity (pericardium): just minor accumulation of fluid in their pericardial cavity, at low pressure
- stiffness of intervertebral connections and deformation induced (intervertebral discs; after supramaximal loads or trauma, vs vehicle): closer to normal
- damage to nucleus pulposus (light microscopy) (intervertebral discs; in vivo): less damage to the nucleus pulposus
- swelling and inflammatory reactions of injured intervertebral discs (intervertebral discs; in vivo): reduced the swelling and the inflammatory reactions
- inflammatory reaction in tumour (light microscopy) (implanted tumours; in vivo): reduced the intensity and extent of the inflammatory reaction
- interstitial fluid pressure (IFP) in the tumour (implanted tumours; tumours 10-15 mm, vehicle in excess of 12): ≤ 12 mm Hg

— patent US8389468B2, “Approach to the treatment of compartment syndrome” (Lantmannen AS-Faktor AB, priority 2006, dated 2013)
